Measured values reported in patent publication US10344330B2, “Glatiramer acetate response biomarker mRNA potency assay” (Mylan Inc., priority 2013, dated 2019).

Assays:
Assay type in all cases: cell-based, mouse
[1] = system: IL-12 (total) secreted by LN cells; test: IL-12 (total) secretion by GA-stimulated LN cells, MSD 9-plex ELISA (Example II); conditions: for IL-12 (total) secretion response ratio (treated cell medium to control DCCM1 medium): 21 hr
Experimental: (§1) Animals at 8 weeks of age were immunized by injection into four footpads using a 1 mL syringe with a 27-G, 1⁄2-inch needle. […] Ten days post-immunization, immunized animals were sacrificed via cervical dislocation. […] The LN cells were isolated by pressing the LN with the plunger end of a sterile syringe. […] Trypan blue exclusion method was used to determine the cell density of viable cells in the suspension. […] Cat. […] LN cells were plated into a 24-well tissue culture plate for drug stimulation. […] Cell debris was removed by centrifugation at ca. 200×g for 10 minutes at 4° C. Cytokines secreted by treated cells were determined on the day of collection by ELISA using mouse TH 1/TH 2 9-Plex Tissue Culture Kit (Meso Scale Discovery; Cat No. […]-2, Lot #: K0032839) which detects Th1 cytokines (IFN-γ, IL-2, IL-12, IL-1β, TNF-α, CXCL1) and Th2 cytokines (IL-4, IL-5 and IL-10). For IFN-γ, culture media also were assayed at 45 hours using mouse IFN-γ Tissue Culture Kit (Meso Scale Discovery; Cat No. […] For the positive control, 0.5 mL of LN cells (5×10^6 cells/well) were treated with 0.5 mL of ConA (5 μg/mL). For the negative control, 0.5 mL of LN cells (5×10^6 cells/well) were treated with 0.5 mL of MBP (20 μg/mL). The LN cells with mock stimulation (enriched DCCM1 medium) were used to monitor the background level of a cytokine. For the cytokine assays, calibration standards or samples were incubated in the MULTI-SPOT or the SINGLE-SPOT plate and each cytokine bound to its corresponding capture antibody. All test samples were run in duplicate. The amount of each cytokine on its distinct spot was quantified using a cytokine-specific detection antibody labeled with MSD SULFO-TAGTM reagent. Electrochemiluminescent signals from immobilized SULFO-TAGTM-labeled complexes on each spot from each well were captured by the MSD SECTOR Imager 6000, which produces a signal directly proportional to the amount of captured cytokine in a test sample. The levels of cytokines in test samples were derived by interpolation from calibration curves with calibration standards of known concentrations using reagents provided with the MSD kits. Kits were used according to the manufacturer's protocols. […] Data are expressed as a response ratio of cytokine concentration in treated cell medium to control DCCM1 medium.

[2] = system: IFN-γ secreted by LN cells; test: IFN-γ secretion by GA-stimulated LN cells, MSD ELISA, 21 and 45 hr (Example II)
[3] = system: IFN-γ mRNA in LN cells; test: IFN-γ mRNA by real-time PCR in LN cells of GA-immunized CD-1, BALB/cByJ, SJL/J mice (Example III); conditions: 6 hours
Experimental: On Day 0, mice were immunized with 250 μg GA (GMA, Mylan Pharmaceuticals, Inc.) and CFA. The GA solution (20 mg/mL) was diluted with Dulbecco's Phosphate-Buffered Saline to 5 mg/mL. The dosing formulation consisted of equal volumes of the diluted GA solution (5 mg/mL) and CFA solution, mixed until well-emulsified. Animals were weighed and allocated to groups. Animals were dosed by injection into four footpads. The injection volume per animal was 0.1 mL (about 10 μL into each front footpad, and 40 μL into each hind footpad).
Immunized animals were euthanized by cervical dislocation on Day 10 post-immunization. Lymph node cells were isolated from animals and treated with Myelin Basic Protein (MBP, a negative control), Concanavalin A (ConA, a positive control) or GA as shown in Table 16. Lymph nodes in the axillary and popliteal regions were removed aseptically in a purifier clean bench. […] The LN were then washed 3 times with −5 mL of RPMI medium, and isolated by pressing the LN with a syringe plunger. […] The cell suspension was centrifuged at about 200×g for 10 minutes at about 4° C. and re-suspended in ice cold enriched DCCM-1 medium. Cells were seeded in 96-well tissue culture plates.
LN cells isolated from GA-immunized animals were stimulated with GA (GMA, Mylan Pharmaceuticals, Inc.) at concentrations as indicated in Tables 16 and 17. A positive control was prepared by treating LN cells with 2.5 μg/mL concavalin A (ConA, a non-specific T cell stimulant). Myelin basic protein (MBP, 10 μg/mL) and enriched DCCM-1 medium served as negative controls. The cells from all groups each were stimulated with the same GA lot. Each reaction was set up in triplicate.
After incubation at about 37° C. in a humidified CO2 incubator for 6 hours, the cells were lysed for total RNA isolation. Total RNA was isolated from treated LN cells using SV 96 Total RNA Isolation System according to the manufacturer's protocol (Promega, Cat. #Z3500). Cells were washed once with Phosphate Buffered Saline (PBS) and lysed in RNA lysis buffer. The lysate was transferred to wells of the SV 96 binding plate. Samples were washed with RNA wash solution and treated with DNase. Total RNA was eluted with nuclease-free water from the binding plate.
After the reverse transcriptase reaction was completed, cDNA samples were used directly for real-time PCR to measure the response biomarker mRNA levels produced by the stimulated cells. […] All probes for target genes contained FAM dye, and probes for the internal control contained VIC®/MGB dye. Samples will be prepared and run in 96-well plates using a Real-Time PCR system (7500, Life Technologies). This system allows direct detection of PCR-product formation by measuring the increase in fluorescent emission continuously during the PCR reaction. A relative quantitation method was used to analyze changes in mouse IL-2, IL-4, IL-5, IL-10, IL-13, IFN-γ and TNF-α expression in GA-treated samples relative to the untreated control (enriched DCCM-1 treated) samples. The Real-Time PCR program was:
The levels of mouse cytokine amplicons (IL-2, IL-4, IL-5, IL-10, IL-13, mIFN-γ and TNF-α) were normalized to internal probe levels (GAPDH) from the same samples. The following equations were used to calculate the relative increase in response to GA stimulation compared to the control sample: ΔCT=CT_target−CT_reference ΔΔCT=−ΔCT_Treated−CT_VC

[4] = system: TNF-α secreted by LN cells; test: TNF-α secretion by GA-stimulated LN cells, MSD 9-plex ELISA (Example II); conditions: for TNF-α secretion response ratio (treated cell medium to control DCCM1 medium): 21 hr
Experimental: as §1

[5] = BALB/cByJ, immunized GA Intraplantar
[6] = BALB/cByJ, immunized GA Lower Limb
[7] = BALB/cByJ, immunized Mannitol Intraplantar
[8] = C57BL10J, immunized GA Intraplantar
[9] = C57BL10J, immunized GA Lower Limb
[10] = C57BL10J, immunized Mannitol Intraplantar
[11] = CD-1, immunized GA Intraplantar
[12] = CD-1, immunized Mannitol Intraplantar
[13] = cells from any of the three mouse strains

Concanavalin A [ConA, reference compound]
IL-12 (total) secretion response ratio (treated cell medium to control DCCM1 medium) [1, 5]: 1.66 | IL-12 (total) secretion response ratio (treated cell medium to control DCCM1 medium) [1, 6]: 1.10 | IL-12 (total) secretion response ratio (treated cell medium to control DCCM1 medium) [1, 7]: 1.44 | IL-12 (total) secretion response ratio (treated cell medium to control DCCM1 medium) [1, 8]: 1.88 | IL-12 (total) secretion response ratio (treated cell medium to control DCCM1 medium) [1, 9]: 1.01 | IL-12 (total) secretion response ratio (treated cell medium to control DCCM1 medium) [1, 10]: 0.92 | IL-12 (total) secretion response ratio (treated cell medium to control DCCM1 medium) [1, 11]: 1.09 | IL-12 (total) secretion response ratio (treated cell medium to control DCCM1 medium) ([1]; CD-1, immunized GA Lower Limb): 1.91 | IL-12 (total) secretion response ratio (treated cell medium to control DCCM1 medium) [1, 12]: 1.80 | IFN-γ secretion response ratio (treated cell medium to control DCCM1 medium) ([2]; BALB/cByJ, immunized GA Intraplantar, 21 hr): 9.70 | IFN-γ secretion response ratio (treated cell medium to control DCCM1 medium) ([2]; BALB/cByJ, immunized GA Intraplantar, 45 hr): 11.40 | IFN-γ secretion response ratio (treated cell medium to control DCCM1 medium) ([2]; BALB/cByJ, immunized GA Lower Limb, 21 hr): 6.24 | IFN-γ secretion response ratio (treated cell medium to control DCCM1 medium) ([2]; BALB/cByJ, immunized GA Lower Limb, 45 hr): 7.33 | IFN-γ secretion response ratio (treated cell medium to control DCCM1 medium) ([2]; BALB/cByJ, immunized Mannitol Intraplantar, 21 hr): 4.40 | IFN-γ secretion response ratio (treated cell medium to control DCCM1 medium) ([2]; BALB/cByJ, immunized Mannitol Intraplantar, 45 hr): 3.48 | IFN-γ secretion response ratio (treated cell medium to control DCCM1 medium) ([2]; C57BL10J, immunized GA Intraplantar, 21 hr): 11.55 | IFN-γ secretion response ratio (treated cell medium to control DCCM1 medium) ([2]; C57BL10J, immunized GA Intraplantar, 45 hr): 53.10 | IFN-γ secretion response ratio (treated cell medium to control DCCM1 medium) ([2]; C57BL10J, immunized GA Lower Limb, 21 hr): 5.07 | IFN-γ secretion response ratio (treated cell medium to control DCCM1 medium) ([2]; C57BL10J, immunized GA Lower Limb, 45 hr): 5.15 | IFN-γ secretion response ratio (treated cell medium to control DCCM1 medium) ([2]; C57BL10J, immunized Mannitol Intraplantar, 21 hr): 4.05 | IFN-γ secretion response ratio (treated cell medium to control DCCM1 medium) ([2]; C57BL10J, immunized Mannitol Intraplantar, 45 hr): 5.90 | IFN-γ secretion response ratio (treated cell medium to control DCCM1 medium) ([2]; CD-1, immunized GA Intraplantar, 21 hr): 10.14 | IFN-γ secretion response ratio (treated cell medium to control DCCM1 medium) ([2]; CD-1, immunized GA Intraplantar, 45 hr): 5.47 | IFN-γ secretion response ratio (treated cell medium to control DCCM1 medium) ([2]; CD-1, immunized GA Lower Limb, 21 hr): 1.90 | IFN-γ secretion response ratio (treated cell medium to control DCCM1 medium) ([2]; CD-1, immunized GA Lower Limb, 45 hr): 1.89 | IFN-γ secretion response ratio (treated cell medium to control DCCM1 medium) ([2]; CD-1, immunized Mannitol Intraplantar, 21 hr): 9.35 | IFN-γ secretion response ratio (treated cell medium to control DCCM1 medium) ([2]; CD-1, immunized Mannitol Intraplantar, 45 hr): 9.68 | IFN-γ mRNA Expression ([3]; Group 1C: CD-1, GA-immunized, stimulation 2.5 μg/mL): 4.0 fold change vs control | IFN-γ mRNA Expression ([3]; Group 2C: BALB/cByJ, GA-immunized, stimulation 2.5 μg/mL): 1.4 fold change vs control | IFN-γ mRNA Expression ([3]; Group 3C: SJL/J, GA-immunized, stimulation 2.5 μg/mL): 1.4 fold change vs control | TNF-α secretion response ratio (treated cell medium to control DCCM1 medium) [4, 5]: 27.69 | TNF-α secretion response ratio (treated cell medium to control DCCM1 medium) [4, 6]: 10.87 | TNF-α secretion response ratio (treated cell medium to control DCCM1 medium) [4, 7]: 11.61 | TNF-α secretion response ratio (treated cell medium to control DCCM1 medium) [4, 8]: 2.53 | TNF-α secretion response ratio (treated cell medium to control DCCM1 medium) [4, 9]: 2.02 | TNF-α secretion response ratio (treated cell medium to control DCCM1 medium) [4, 10]: 2.10 | TNF-α secretion response ratio (treated cell medium to control DCCM1 medium) [4, 11]: 17.59 | TNF-α secretion response ratio (treated cell medium to control DCCM1 medium) ([4]; CD-1, immunized GA Lower Limb): 9.79 | TNF-α secretion response ratio (treated cell medium to control DCCM1 medium) [4, 12]: 23.88

L-glutamic acid polymer with L-alanine, L-lysine and L-tyrosine, acetate (salt) [GA]
IL-12 secretion, dose response to GA (in words) [1, 13]: No dose response | IFN-γ secretion, dose response to GA (in words) ([2]; LN cells from each of the three mouse strains): dose-dependent manner | IFN-γ mRNA Expression ([3]; Group 1C: CD-1, GA-immunized, stimulation 0.3 μg/mL): 1.6 fold change vs control | IFN-γ mRNA Expression ([3]; Group 1C: CD-1, GA-immunized, stimulation 1 μg/mL): 2.8 fold change vs control | IFN-γ mRNA Expression ([3]; Group 1C: CD-1, GA-immunized, stimulation 3 μg/mL): 4.3 fold change vs control | IFN-γ mRNA Expression ([3]; Group 1C: CD-1, GA-immunized, stimulation 10 μg/mL): 3.1 fold change vs control | IFN-γ mRNA Expression ([3]; Group 2C: BALB/cByJ, GA-immunized, stimulation 0.3 μg/mL): 1.2 fold change vs control | IFN-γ mRNA Expression ([3]; Group 2C: BALB/cByJ, GA-immunized, stimulation 1 μg/mL): 1.7 fold change vs control | IFN-γ mRNA Expression ([3]; Group 2C: BALB/cByJ, GA-immunized, stimulation 3 μg/mL): 2.8 fold change vs control | IFN-γ mRNA Expression ([3]; Group 2C: BALB/cByJ, GA-immunized, stimulation 10 μg/mL): 2.2 fold change vs control | IFN-γ mRNA Expression ([3]; Group 3C: SJL/J, GA-immunized, stimulation 0.3 μg/mL): 0.9 fold change vs control | IFN-γ mRNA Expression ([3]; Group 3C: SJL/J, GA-immunized, stimulation 1 μg/mL): 1.7 fold change vs control | IFN-γ mRNA Expression ([3]; Group 3C: SJL/J, GA-immunized, stimulation 3 μg/mL): 2.5 fold change vs control | IFN-γ mRNA Expression ([3]; Group 3C: SJL/J, GA-immunized, stimulation 10 μg/mL): 2.2 fold change vs control | TNF-α secretion, dose response to GA (in words) [4, 13]: No dose response
